According to publication PMC9370166, “In Vitro and In Vivo Antibacterial Activity, Toxicity and Resistance Analysis of Pleuromutilin Derivative Z33 against Methicillin-Resistant Staphylococcus aureus” (Molecules, 2022):
≈ marks a conversion by molar mass, not a printed value. Like-named read-outs stand apart in the source and are kept apart here.

Experiments:
[1] = tested on: S. aureus clinical strain AD3; assay: MIC and MBC determination (broth microdilution); format: cell-based; details: Staphylococcus aureus; for MIC: first value of cell; for MBC: second value of cell
Description: (§1) The MIC values of Z33 against MRSA ATCC 43300 and S. aureus clinical isolates were measured according to the broth microdilution guidelines provided by the Clinical and Laboratory Standards Institute (CLSI). S. aureus ATCC 29213 was used as the quality control strain, and the quality control range was referred to the CLSI. The MIC value is defined as the lowest concentration of the compounds with no visible growth of bacteria. The MIC assay was independently repeated three times.
(§2) The MBC values of antibacterial agents were measured after incubation at 37 °C for 24 h. Briefly, 100 µL of bacterial solution from the three wells behind the corresponding well of MIC was absorbed and spread on the Mueller–Hinton Agar (MHA). The MBC refers to the lowest concentration corresponding to the amount of colony-forming unit (CFU) ≤ 5 on the medium after 18~24 h of incubation at 37 °C.

[2] = tested on: MRSA ATCC 43300; assay: MIC and MBC determination (broth microdilution); format: cell-based; details: Staphylococcus aureus; for MIC: first value of MIC/MBC cell; for MBC: second value of MIC/MBC cell
Description: as §1, §2

[3] = tested on: S. aureus ATCC 29213; assay: MIC and MBC determination (broth microdilution); format: cell-based; details: Staphylococcus aureus; for MIC: ATCC29213, first value of cell; for MBC: ATCC29213, second value of cell
Description: as §1, §2

[4] = tested on: S. aureus clinical strain 144; assay: MIC and MBC determination (broth microdilution); format: cell-based; details: Staphylococcus aureus; for MIC: first value of cell; for MBC: second value of cell
Description: as §1, §2

[5] = tested on: MRSA ATCC 43300; assay: Time-kill kinetics assay; format: cell-based, Staphylococcus aureus; details: 8 × MIC; over 24 h of exposure
Description: The time–kill kinetics curve of Z33 was determined according to previous reports. MRSA ATCC 43300 strains were grown in Mueller–Hinton Broth (MHB) at the starting inoculum of 10^6 CFU/mL. […] MHB without antibiotics was used as a control. At various time points (0, 3, 6, 9, and 24 h), 100 µL of samples were diluted with 0.9% saline and plated on MHA medium. CFU were recorded after 24 h of incubation at 37 °C.

[6] = tested on: MRSA ATCC 43300; assay: Neutropenic mouse thigh infection model; format: in vivo, mice; details: for MRSA inoculum in the thigh muscle / reduction of bacterial load in the thigh muscle: 20 mg/kg intravenous; for MRSA inoculum in the thigh muscle: after treatment for 24 h; for reduction of bacterial load in the thigh muscle: versus untreated group
Description: The neutropenic mouse thigh infection model was used to determine the in vivo antibacterial activity of Z33 [23]. Briefly, female mice were rendered neutropenic (neutrophil count ≤ 100/mm^3) via intraperitoneal injection of cyclophosphamide on day 4 (150 mg/kg) and day 1 (100 mg/kg) before infection. MRSA ATCC 43300 cells were collected in the logarithmic phase and resuspended in 0.9% saline. The thigh infection model was established by injection of 100 μL of MRSA suspension (10^7 CFU/mL) into the posterior thighs of mice. After 2 h post-infection, mice were intravenously injected with tiamulin and Z33 at a dose of 20 mg/kg, and the untreated groups were administrated with an equal amount of saline. Mice were euthanized after treatment of 22 h, thigh tissue was aseptically collected, weighed, homogenized, and serially diluted in saline, respectively. CFU counts were determined by the flat colony counting method.

[7] = tested on: four S. aureus strains; assay: microbe, parasite or virus in culture; format: cell-based, Staphylococcus aureus; details: for passages after which resistance developed (≥ 4-fold MIC increase): four S. aureus strains
Description: To assess the propensity for the development of bacterial resistance, the ability of Z33 and tiamulin to induce resistance to four strains were tested, respectively. Serial passages at 37 °C were performed daily in BHI broth containing sub-MIC concentration (1/4 MIC) of Z33 and tiamulin. The MIC values were daily determined and recorded by the broth microdilution method. A duration of 13 passages was performed in every case.

[8] = tested on: MRSA ATCC 43300; assay: Post-antibiotic effect assay; format: cell-based, Staphylococcus aureus
Description: The PAE was measured using the method described by Jin et al.. MRSA ATCC 43300 cells were collected in the logarithmic phase and resuspended in MHB. The bacterial suspension (10^6 CFU/mL) was inoculated in MHB containing Z33 (final concentration is 2 × or 4 × MIC) and incubated for 1 or 2 h at 37 °C with shaking (210 rpm). The group without the drug served as a control. After treatment with various concentrations of Z33, samples were subjected to one-thousand-fold dilution with MHB to remove the drug and incubated at 37 °C. In total, 100 µL of the samples was serially diluted in 0.9% saline and plated onto MHA at various time points (0, 1, 2, 4, 8 h). MHA plates were incubated at 37 °C for 18~24 h to calculate CFU. The growth kinetic curves of MRSA treated with different drug concentrations were established by plotting log10 CFU/mL of bacterial counts versus time. PAE was presented in hours and calculated according to the following equation: PAE = TA − TC, where TA and TC are the time required for MRSA to rise by 1 log10 CFU/mL after drug removal in the treated and untreated cultures, respectively.

[9] = tested on: S. aureus clinical strain AD3; assay: Determination of MPC (mutant prevention concentration); format: cell-based, Staphylococcus aureus
Description: (§3) The drug-resistant tendency suppression potential of Z33 and tiamulin was determined as described with minor modifications. In the test, for each S. aureus strain, 4 mL of overnight cultures were inoculated into 100 mL of fresh BHI broth and then incubated for 4.5 h at 37 °C with shaking (210 rpm). Cultures were centrifuged at 5000 r/min for 10 min. The supernatant was discarded and resuspended in the 4 mL of saline to achieve a bacterial density of ~3 × 10^10 CFU/mL. In total, 100 μL of each culture was spread onto MHA containing various concentrations of Z33 and tiamulin. […] Plates were incubated at 37 °C for a total of 72 h and recorded every 24 h for the appearance of colonies. MPC was defined as the lowest concentration with no growth of colonies on the agar plate. MPC was carried out in triplicate.

[10] = tested on: MRSA ATCC 43300; assay: as above; format: cell-based, Staphylococcus aureus
Description: as §3

[11] = tested on: S. aureus ATCC 29213; assay: as above; format: cell-based, Staphylococcus aureus
Description: as §3

[12] = tested on: S. aureus clinical strain 144; assay: as above; format: cell-based, Staphylococcus aureus
Description: as §3

[13] = biological target: T1, CYP3A4 (Homo sapiens, UniProt P08684); assay: CYP450 inhibition assay, human liver microsomes, testosterone probe; format: in vitro ADME
T1 construct: 40 µL of the human liver microsomal enzyme (final concentration is 0.5 g/L); tissue Research Institute for Liver Diseases Co., Ltd. (Shanghai, China); host or cells: human liver microsomes
T1 sequence (P08684 whole entry): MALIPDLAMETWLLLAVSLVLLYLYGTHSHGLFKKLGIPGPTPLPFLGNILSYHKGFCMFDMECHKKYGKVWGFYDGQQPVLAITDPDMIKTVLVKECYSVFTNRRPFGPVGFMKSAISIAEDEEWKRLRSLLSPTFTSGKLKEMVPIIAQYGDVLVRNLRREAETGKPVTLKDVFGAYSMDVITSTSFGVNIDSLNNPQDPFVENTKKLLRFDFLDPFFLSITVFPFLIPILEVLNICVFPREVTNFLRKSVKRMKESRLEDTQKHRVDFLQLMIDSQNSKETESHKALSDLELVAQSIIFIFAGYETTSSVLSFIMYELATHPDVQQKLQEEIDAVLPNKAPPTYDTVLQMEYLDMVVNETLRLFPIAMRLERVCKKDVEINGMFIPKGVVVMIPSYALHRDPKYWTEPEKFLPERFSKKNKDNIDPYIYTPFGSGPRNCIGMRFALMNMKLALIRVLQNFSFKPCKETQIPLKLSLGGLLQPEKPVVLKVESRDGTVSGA
Description: (§4) The inhibition effect of Z33 and tiamulin on the human liver microsomal enzyme was determined as described in the literature with some modifications. Experiments were performed in 96-well plates with a final incubation volume of 100 μL per well. 40 µL of the human liver microsomal enzyme (final concentration is 0.5 g/L), 20 µL of probe substrate (final concentration of testosterone and chlorzoxazone is 20 µmol/L), and 20 µL of test drug were mixed in each well. After preincubation at 37 °C for 5 min, the reactions were started by the addition of 20 μL of NADPH (final concentration is 1 mmol/L). Depending on the substrate, the chlorzoxazone and testosterone groups were incubated at 37 °C for 25 min and 10 min, respectively. The reaction was terminated by adding 100 µL of acetonitrile, and then the supernatant was centrifuged to analyse by LC-MS/MS.

[14] = tested on: RAW264.7 cells; assay: Cytotoxicity test (MTT assay); format: cell-based; details: concentrations less than 5 μg/mL, 24 h, MTT
Description: (§5) To assess the effects of tiamulin and Z33 on the viability of RAW264.7 macrophages, the MTT assay was performed according to previous reports. […] After discarding the MTT solution, DMSO (150 μL) was added to each well to dissolve all crystals. OD490nm was recorded using EnSight Multimode Plate Reader (PerkinElmer, […], USA).

[15] = Cytotoxicity test (MTT assay); format: cell-based; details: mouse, RAW264.7 macrophages, RAW264.7, MTT, tested up to 20 μg/mL
Description: as §5

[16] = tested on: four S. aureus strains; assay: MIC and MBC, summary over four strains; format: cell-based; details: Staphylococcus aureus; range over four strains; read-out: MIC values against four S. aureus strains
Description: as §1, §2

[17] = tested on: four S. aureus strains; assay: MPC, summary over four strains; format: cell-based, Staphylococcus aureus
Description: as §3

[18] = biological target: T2, CYP2E1 (Homo sapiens, UniProt P05181); assay: CYP450 inhibition assay, human liver microsomes, chlorzoxazone probe; format: in vitro ADME; details: for IC50: human liver microsomes
T2 construct: 40 µL of the human liver microsomal enzyme (final concentration is 0.5 g/L); tissue Research Institute for Liver Diseases Co., Ltd. (Shanghai, China); host or cells: human liver microsomes
T2 sequence (P05181 whole entry): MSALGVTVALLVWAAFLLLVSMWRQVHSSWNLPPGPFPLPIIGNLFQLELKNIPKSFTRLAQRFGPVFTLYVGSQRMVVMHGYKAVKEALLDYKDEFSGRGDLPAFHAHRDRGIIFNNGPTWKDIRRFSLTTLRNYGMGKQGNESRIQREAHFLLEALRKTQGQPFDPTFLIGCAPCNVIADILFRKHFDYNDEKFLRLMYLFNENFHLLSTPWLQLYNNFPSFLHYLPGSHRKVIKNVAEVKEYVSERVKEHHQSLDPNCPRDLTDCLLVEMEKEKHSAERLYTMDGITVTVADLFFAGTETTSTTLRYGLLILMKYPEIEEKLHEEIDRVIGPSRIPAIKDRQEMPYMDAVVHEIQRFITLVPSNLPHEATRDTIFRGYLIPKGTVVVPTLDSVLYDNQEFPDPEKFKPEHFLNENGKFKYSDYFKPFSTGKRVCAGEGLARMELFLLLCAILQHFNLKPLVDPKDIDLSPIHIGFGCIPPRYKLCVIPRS
Description: as §4

[19] = Acute oral toxicity in mice; details: both sexes, ICR, mouse, in vivo, 5 g/kg; acute oral toxicity, mice
Description: (§6) The acute toxicity of Z33 was performed in mice according to previous works with some modifications. The ICR mice were randomly divided into two groups (10 animals in each group, half male and half female) after 12 h of fasting. Z33 was prepared with 0.5% CMC-Na sodium as a suspension at a concentration of 5 g/kg. Mice in the test group were administered with Z33 suspension by oral administration route, and the control group received an equal dose of 0.5% CMC-Na. All the mice were observed critically once a day for 14 days. The test was repeated twice.

[20] = tested on: ICR mice; assay: Acute oral toxicity in mice; details: mouse, in vivo, po, 5000 mg/kg
Description: as §6

[21] = Figure 6, read-out: IC50 CYP2E1 (value in plot key)
[22] = bound given in text, read-out: IC50 CYP2E1

SMILES	MIC [1]	MBC [1]	MIC [2]	MBC [2]	MIC [3]	MBC [3]	MIC [4]	MBC [4]	MRSA inoculum in the thigh muscle [6]	reduction of bacterial load in the thigh muscle [6]	fold increase in MICs ([7]; after 13 passages)	passages after which resistance developed (≥ 4-fold MIC increase) [7]	MPC [9]	MPC [10]	MPC [11]	MPC [12]	IC50 [13]	cytotoxicity on RAW264.7 cells [14]	IC50 at 24 h [15]	IC50 [18, 21]	further results
C=C[C@]1(C)C[C@@H](OC(=O)CSc2ccccc2NC(=O)Cn2cc(CN3CCN(c4ccc([N+](=O)[O-])cc4)CC3)nn2)[C@]2(C)[C@H](C)CC[C@]3(CCC(=O)[C@H]32)[C@@H](C)[C@@H]1O [Compound Z33, 22-(2-(2-(4-((4-(4-nitrophenyl)piperazin-1-yl)methyl)-1H-1,2,3-triazol-1-yl)acetamido)phenyl)thioacety-l-yl-22-deoxypleuromutilin]	0.25 µg/mL (≈ 0.307 µM)	0.25 µg/mL (≈ 0.307 µM)	0.125 µg/mL (≈ 0.154 µM)	0.25 µg/mL (≈ 0.307 µM)	0.125 µg/mL (≈ 0.154 µM)	0.125 µg/mL (≈ 0.154 µM)	0.25 µg/mL (≈ 0.307 µM)	0.25 µg/mL (≈ 0.307 µM)	7.065 ± 0.070 log10 CFU/g	approximately 1.358 log10 CFU/g	approximately 16 fold	8 passages	0.5 µg/mL	0.5 µg/mL	0.5 µg/mL	0.5 µg/mL	1570 nM	No significant cytotoxicity	≥ 20 µg/mL	10200 nM	concentration showing inhibition of bacterial growth (time-kill) [5]: 1 µg/mL; reduction in CFUs compared with the control group ([6]; 20 mg/kg, p < 0.0001): 1.358 log10; fold decrease in susceptibility of the most resistant strain ([7]; after 13 passages): 32 fold; fold increase in MIC ([7]; in 7 passages, sub-MIC (1/4 MIC) exposure): ≤ 4 fold; PAE ([8]; 2 × MIC, exposure for 1 h): 2.24 h; PAE ([8]; 2 × MIC, exposure for 2 h): 2.18 h; PAE ([8]; 4 × MIC, exposure for 1 h): 3.89 h; PAE ([8]; 4 × MIC, exposure for 2 h): 3.93 h; MIC [16]: 0.125 to 0.25 µg/mL (≈ 0.154 to 0.307 µM); MPCs to four S. aureus strains [17]: 0.5 µg/mL; fold difference of CYP2E1 IC50 relative to tiamulin ([18]; Z33 vs tiamulin): at least 50 fold; IC50 [18, 22]: > 10000 nM; LD50 at 14 days [19]: > 5000 mg/kg; mortality [20]: None of the mice died
C=C[C@]1(C)C[C@@H](OC(=O)CSCCN(CC)CC)[C@]2(C)[C@H](C)CC[C@]3(CCC(=O)[C@H]32)[C@@H](C)[C@@H]1O [tiamulin, reference compound]	1 µg/mL (≈ 2.03 µM)	2 µg/mL (≈ 4.05 µM)	0.5 µg/mL (≈ 1.01 µM)	1 µg/mL (≈ 2.03 µM)	0.5 µg/mL (≈ 1.01 µM)	1 µg/mL (≈ 2.03 µM)	0.5 µg/mL (≈ 1.01 µM)	2 µg/mL (≈ 4.05 µM)	7.655 ± 0.067 log10 CFU/g	0.771 log10 CFU/g	~32 fold	3 passages	2 µg/mL	1 µg/mL	1 µg/mL	1 µg/mL	1600 nM	No significant cytotoxicity	≥ 20 µg/mL	184 nM	MIC ([7]; Staphylococcus aureus, read-out: MICs of resistant clones): 2 to 8 µg/mL (≈ 4.05 to 16.2 µM); IC50 [18, 22]: < 250 nM
C=C[C@]1(C)C[C@@H](OC(=O)CSC(C)(C)CNC(=O)[C@H](N)C(C)C)[C@]2(C)[C@H](C)CC[C@]3(CCC(=O)[C@H]32)[C@@H](C)[C@@H]1O [valnemulin]	0.125 µg/mL (≈ 0.221 µM)	0.125 µg/mL (≈ 0.221 µM)	0.125 µg/mL (≈ 0.221 µM)	0.125 µg/mL (≈ 0.221 µM)	0.125 µg/mL (≈ 0.221 µM)	0.125 µg/mL (≈ 0.221 µM)	0.125 µg/mL (≈ 0.221 µM)	0.25 µg/mL (≈ 0.443 µM)													
